Target: T1, PDE10 (Homo sapiens, UniProt Q9Y233)
T1 construct: made in house; host or cells: Sf9 insect cells (baculovirus)
Experiment: PDE10 biochemical assay (two-step Thompson and Appleman method or SPA)
Details: PDE10 inhibition
Description: In short, cAMP is spiked with (^3H)cAMP and incubated with PDE10 and various concentrations of a compound of structure (I). After the appropriate incubation time, the reaction is terminated by heating. The mixture is then subjected to treatment with snake venom phosphatase. The phosphatase hydrolyzes any AMP in the mixture, but leaves unreacted cAMP intact. Thus, by separating cAMP from the mixture and determining its concentration (by radiography), the percent of inhibition can be determined. IC50 values can be calculated by performing the experiment at several concentrations using standard graphical means. A detailed description of the actual technique used for IC50 assays as set forth in following Examples.
The phosphodiesterase (PDE) assay was performed using recombinant human PDE 1A3, 2A3, 3 catalytic region, 4 catalytic region, 5 catalytic region, 7A, 8A, 9A2, 10A1 and 11A1 enzymes expressed in a baculoviral system using Sf9 cells. PDE activity was measured using a modification of the two-step method of Thompson and Appleman described above which was adapted for 96 well plate format. […] The final assay volume was 110 μl with assay buffer (10 mM MgCl2; 40 mM Tris.HCl; pH 7.4). Reactions were initiated with enzyme and incubated with (^3H)-substrate and substance for 20 minutes at 30° C. The reaction was terminated by denaturing the enzyme (heating the reaction to 70° C. for 2 minutes). The reaction was then cooled at 4° C. for 10 minutes before the addition of snake venom (Crotalus atrox, 0.2 mg/ml) for 10 minutes at 30° C., thus allowing non-specific hydrolysis of the tritiated substrate. Separation of the remaining unhydrolysed cyclic nucleotide was achieved by a batch binding of the mixture to activated Dowex (200 μl) anion exchange resin. The anion exchange resin bound the charged nucleotides, leaving only hydrolysed (^3H) substrate in the soluble fraction. The soluble fraction (50 μl) was then added to microscint-20 (200 μl) and counted on a Top Count Plate reader. Radioactivity units were plotted against inhibitor concentration and IC50 values obtained using Graph Pad Prism software.
Alternatively, phosphodiesterase activity was measured by scintillation proximity assay (SPA) with [^3H]-cGMP as substrate. Purified PDE10 was diluted and stored in 25 mM Tris-Cl (pH 8.0)/100 mM NaCl/0.05% Tween 20/50% glycerol/3 mM DTT. Assays contained (final concentrations): 50 mM Tris-Cl (pH 7.5)/8.3 mM MgCl2/1.7 mM EGTA/0.5 mg/ml BSA/5% DMSO and 2 ng PDE10 in a final volume of 0.1 mL. Inhibition was evaluated at 8 concentrations in duplicate. Reactions were initiated by addition of enzyme and were terminated after 20 minutes at 30° C. by the addition of 50 μl of SPA beads containing Zn^++. The mixture was shaken, allowed to settle for 3 hours, and counted in a Wallac plate counter. Results (net cpm) were fitted to a four parameter logistic model using Excel Solver®.

T1 sequence (Q9Y233 1-779 isoform Q9Y233-1): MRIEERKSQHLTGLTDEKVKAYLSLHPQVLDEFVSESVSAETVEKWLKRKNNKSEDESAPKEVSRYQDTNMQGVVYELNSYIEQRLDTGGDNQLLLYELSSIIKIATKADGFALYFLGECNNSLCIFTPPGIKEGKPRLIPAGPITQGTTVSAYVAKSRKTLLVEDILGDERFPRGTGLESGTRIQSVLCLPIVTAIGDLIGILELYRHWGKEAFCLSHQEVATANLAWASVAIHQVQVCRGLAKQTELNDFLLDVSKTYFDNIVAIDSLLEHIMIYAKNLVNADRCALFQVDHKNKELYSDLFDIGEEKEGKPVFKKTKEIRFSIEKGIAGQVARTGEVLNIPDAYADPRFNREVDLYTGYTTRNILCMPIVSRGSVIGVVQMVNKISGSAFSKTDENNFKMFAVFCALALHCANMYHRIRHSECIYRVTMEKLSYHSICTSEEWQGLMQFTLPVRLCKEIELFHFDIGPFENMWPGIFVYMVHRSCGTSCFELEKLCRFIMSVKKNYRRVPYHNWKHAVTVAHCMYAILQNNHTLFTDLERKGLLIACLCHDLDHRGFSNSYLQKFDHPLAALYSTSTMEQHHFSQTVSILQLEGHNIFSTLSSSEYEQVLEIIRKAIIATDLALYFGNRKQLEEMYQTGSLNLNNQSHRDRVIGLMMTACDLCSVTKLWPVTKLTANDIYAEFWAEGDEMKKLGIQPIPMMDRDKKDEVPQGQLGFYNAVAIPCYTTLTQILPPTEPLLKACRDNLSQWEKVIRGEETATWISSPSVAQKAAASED

| Compound | IC50 [µM] |
| --- | --- |
| COc1cc(-c2coc(C(=O)C(OC)c3ccc(-n4cc(C)cn4)cc3)n2)cc(OC)c1Br (stereo not drawn) [Compound 65-6] | ≤ 1 |
| COc1cc(-c2coc(C(=O)C(OC)c3cccc(N4CCOCC4)c3)n2)cc(OC)c1Br (stereo not drawn) [Compound 65-1] | ≤ 1 |
| COc1cc(-c2coc(C(=O)C(OC)c3ccc(OC(F)(F)F)cc3)n2)cc(OC)c1Br (stereo not drawn) [Compound 65-3] | ≤ 1 |
| COc1cc(-c2ccc(C(=O)C(OCC3CC3)c3ccc(N4CCOCC4)cc3)o2)cc(OC)c1Br (stereo not drawn) [Compound 41-1, 1-(5-(4-Bromo-3,5-Dimethoxyphenyl)Furan-2-Yl)-2-(Cyclopropylmethoxy)-2-(4-Morpholinophenyl)Ethanone] | ≤ 1 |
| COc1cc(-c2ccc(C(=O)C(OC)c3ccc4c(c3)nnn4C)o2)cc(OC)c1Br (stereo not drawn) [Compound 25-1, 1-(5-(4-Bromo-3,5-Dimethoxyphenyl)Furan-2-Yl)-2-Methoxy-2-(1-Methyl-1H-Benzo[D][1,2,3]Triazol-5-Yl)Ethanone] | ≤ 1 |
| COc1cc(-c2coc(C(=O)C(OC)c3ccc(-n4ccnn4)cc3)n2)cc(OC)c1Br (stereo not drawn) [Compound 65-4] | ≤ 1 |
| COc1cc(-c2ccc(C(=O)C(OC)c3ccc(-c4ccc(C)o4)cc3)o2)cc(OC)c1Br (stereo not drawn) [Compound 16-1, 1-(5-(4-Bromo-3,5-Dimethoxyphenyl)Furan-2-Yl)-2-Methoxy-2-(4-(5-Methylfuran-2-Yl)Phenyl)Ethanone] | ≤ 1 |
| COc1cc(-c2coc(C(=O)C(OC)c3ccc(N4CCCCC4)cc3)n2)cc(OC)c1Br (stereo not drawn) [Compound 6-1, 1-(4-(4-Bromo-3,5-Dimethoxyphenyl)Oxazol-2-Yl)-2-Methoxy-2-(4-(Piperidin-1-Yl)Phenyl)Ethanone] | ≤ 1 |
| COc1cc(-c2ccc(C(=O)C(OC)c3ccc(-c4nnc(C)o4)cc3)o2)cc(C#N)c1OC (stereo not drawn) [Compound 17-1, 2,3-Dimethoxy-5-(5-(2-Methoxy-2-(4-(5-Methyl-1,3,4-Oxadiazol-2-Yl)Phenyl)Acetyl)Furan-2-Yl)Benzonitrile] | ≤ 1 |
| COc1cc(-c2cn(C)c(C(=O)C(OC)c3ccc(N4CCOCC4)cc3)n2)cc(OC)c1Br (stereo not drawn) [Compound 4-1, 1-(4-(4-Bromo-3,5-Dimethoxyphenyl)-1-Methyl-1H-Imidazol-2-Yl)-2-Methoxy-2-(4-Morpholinophenyl)Ethanone] | ≤ 1 |
| COc1cc(-c2ccc(C(=O)C(OC)c3ccc(-c4cnccn4)cc3)o2)cc(OC)c1Br (stereo not drawn) [Compound 45-1, 1-(5-(4-Bromo-3,5-Dimethoxyphenyl)Furan-2-Yl)-2-Methoxy-2-(4-(Pyrazin-2-Yl)Phenyl)Ethanone] | ≤ 1 |
| COc1cc(-c2ccc(C(=O)C(OC)c3ccc(-c4nnc(C)o4)cc3)o2)cc(OC)c1F (stereo not drawn) [Compound 62-1, 1-(5-(4-Fluoro-3,5-Dimethoxyphenyl)Furan-2-Yl)-2-Methoxy-2-(4-(5-Methyl-1,3,4-Oxadiazol-2-Yl)Phenyl)Ethanone] | ≤ 1 |
| COc1cc(-c2ccc(C(=O)C(OC)c3ccc(N4CCOCC4)cc3)o2)cc(OC)c1Cl (stereo not drawn) [Compound 50-1, 1-(5-(4-Chloro-3,5-Dimethoxyphenyl)Furan-2-Yl)-2-Methoxy-2-(4-Morpholinophenyl)Ethanone] | ≤ 1 |
| CCOC(C(=O)c1ccc(-c2cc(OC)c(Br)c(OC)c2)o1)c1ccc(-c2nnc(C)s2)cc1 (stereo not drawn) [Compound 65-11] | ≤ 1 |
| COc1cc(-c2coc(C(=O)C(OC)c3ccc(-n4cccn4)cc3)n2)cc(OC)c1Br (stereo not drawn) [Compound 5-1, 2-(4-(1H-Pyrazol-1-Yl)Phenyl)-1-(4-(4-Bromo-3,5-Dimethoxyphenyl)Oxazol-2-Yl)-2-Methoxyethanone] | ≤ 1 |
| COc1cc(-c2ccc(C(=O)C(OC)c3ccc(N4CCOCC4)cc3)o2)cc(OC)c1Br (stereo not drawn) [Compound 12-1, 1-(5-(4-Bromo-3,5-Dimethoxyphenyl)Furan-2-Yl)-2-Methoxy-2-(4-Morpholinophenyl)Ethanone] | ≤ 1 |
| COc1cc(-c2ccc(C(=O)C(OC)c3ccc(-c4nnc(C)o4)cc3)s2)cc(OC)c1Br (stereo not drawn) [Compound 57-1, 1-(5-(4-Bromo-3,5-Dimethoxyphenyl)Thiophen-2-Yl)-2-Methoxy-2-(4-(5-Methyl-1,3,4-Oxadiazol-2-Yl)Phenyl)Ethanone] | ≤ 1 |

| Compound | IC50 [µM] |
| --- | --- |
| COc1cc(-c2coc(C(=O)C(OC)c3ccc(N4CCCC4)cc3)n2)cc(OC)c1Br (stereo not drawn) [Compound 7-1, 1-(4-(4-Bromo-3,5-Dimethoxyphenyl)Oxazol-2-Yl)-2-Methoxy-2-(4-(Pyrrolidin-1-Yl)Phenyl)Ethanone] | ≤ 1 |
| COc1cc(-c2ccc(C(=O)C(OC)c3ccc(CN4CCOCC4)cc3)o2)cc(OC)c1Br (stereo not drawn) [Compound 26-1, 1-(5-(4-Bromo-3,5-Dimethoxyphenyl)Furan-2-Yl)-2-Methoxy-2-(4-(Morpholinomethyl)Phenyl)Ethanone] | ≤ 1 |
| COc1cc(-c2coc(C(=O)C(OC)c3ccc(OC(C)C)cc3)n2)cc(OC)c1Br (stereo not drawn) [Compound 8-1, 1-(4-(4-Bromo-3,5-Dimethoxyphenyl)Oxazol-2-Yl)-2-(4-Isopropoxyphenyl)-2-Methoxyethanone] | ≤ 1 |
| COc1cc(-c2ccc(C(=O)C(OC)c3ccc(-n4ccnn4)cc3)o2)cc(OC)c1Br (stereo not drawn) [Compound 31-1, 2-(4-(1H-1,2,3-Triazol-1-Yl)Phenyl)-1-(5-(4-Bromo-3,5-Dimethoxyphenyl)Furan-2-Yl)-2-Methoxyethanone] | ≤ 1 |
| COc1cc(-c2ccc(C(=O)C(OC)c3ccc(N4CCOCC4)cc3)o2)cc(OC)c1OC(F)F (stereo not drawn) [Compound 28-1, 1-(5-(4-(Difluoromethoxy)-3,5-Dimethoxyphenyl)Furan-2-Yl)-2-Methoxy-2-(4-Morpholinophenyl)Ethanone] | ≤ 1 |
| CCOC(C(=O)c1ccc(-c2cc(OC)c(F)c(OC)c2)o1)c1ccc(-c2nnc(C)o2)cc1 (stereo not drawn) [Compound 65-13] | ≤ 1 |
| COc1cc(-c2ccc(C(=O)C(OC)c3ccc(-c4nnc(C)o4)cc3)o2)cc(OC)c1C (stereo not drawn) [Compound 21-1, 1-(5-(3,5-Dimethoxy-4-Methylphenyl)Furan-2-Yl)-2-Methoxy-2-(4-(5-Methyl-1,3,4-Oxadiazol-2-Yl)Phenyl)Ethanone] | ≤ 1 |
| COc1cc(-c2ccc(C(=O)C(OC)c3cccc4ncccc34)o2)cc(OC)c1Br (stereo not drawn) [Compound 20-1, 1-(5-(4-Bromo-3,5-Dimethoxyphenyl)Furan-2-Yl)-2-Methoxy-2-(Quinolin-5-Yl)Ethanone] | ≤ 1 |
| COc1cc(-c2coc(C(=O)C(OC)c3cnc4ccccc4c3)n2)cc(OC)c1Br (stereo not drawn) [Compound 10-1, 1-(4-(4-Bromo-3,5-Dimethoxyphenyl)Oxazol-2-Yl)-2-Methoxy-2-(Quinolin-3-Yl)Ethanone] | ≤ 1 |
| COc1ccc(-c2ccn(C(=O)C(OC)c3ccc(F)cc3)n2)cc1OC (stereo not drawn) [Compound 51-1, 1-(3-(3,4-Dimethoxyphenyl)-1H-Pyrazol-1-Yl)-2-(4-Fluorophenyl)-2-Methoxyethanone] | ≤ 1 |
| COc1cc(-c2ccc(C(=O)C(OC)c3ccc(-c4nnc(C)o4)cc3)o2)cc(OC)c1O (stereo not drawn) [Compound 65-15] | ≤ 1 |
| COc1cc(-c2ccc(C(=O)C(OC)c3ccc(-n4cncn4)cc3)o2)cc(OC)c1Br (stereo not drawn) [Compound 32-1, 2-(4-(1H-1,2,4-Triazol-1-Yl)Phenyl)-1-(5-(4-Bromo-3,5-Dimethoxyphenyl)Furan-2-Yl)-2-Methoxyethanone] | ≤ 1 |
| COc1cc(-c2ccc(C(=O)C(OC)c3ccc(N4CCCS4(=O)=O)cc3)o2)cc(OC)c1Br (stereo not drawn) [Compound 19-1, 1-(5-(4-Bromo-3,5-Dimethoxyphenyl)Furan-2-Yl)-2-(4-(1,1-Dioxidoisothiazolidin-2-Yl)Phenyl)-2-Methoxyethanone] | ≤ 1 |
| COc1cc(-c2nc(C(=O)C(OC)c3ccc(N4CCOCC4)cc3)no2)cc(OC)c1Br (stereo not drawn) [Compound 54-1, 1-(5-(4-Bromo-3,5-Dimethoxyphenyl)-1,2,4-Oxadiazol-3-Yl)-2-Methoxy-2-(4-Morpholinophenyl)Ethanone] | ≤ 1 |
| COc1cc(-c2coc(C(=O)C(OC)c3ccc(-n4cncn4)cc3)n2)cc(OC)c1Br (stereo not drawn) [Compound 65-2] | ≤ 1 |
| COc1cc(-c2ccc(C(=O)C(OC)c3ccc(-c4cccnc4)cc3)o2)cc(OC)c1Br (stereo not drawn) [Compound 37-1, 1-(5-(4-Bromo-3,5-Dimethoxyphenyl)Furan-2-Yl)-2-Methoxy-2-(4-(Pyridin-3-Yl)Phenyl)Ethanone] | ≤ 1 |
